Assay results published in ChEMBL document CHEMBL1681742, “Novel second generation analogs of eribulin. Part I: Compounds containing a lipophilic C32 side chain overcome P-glycoprotein susceptibility” (Bioorg Med Chem Lett, 2011).

Legend:
[1] = Antiproliferative activity against human MES-SA cells assessed as growth inhibition; assay type: functional, cell-based
[2] = Antiproliferative activity against P-gp overexpressing human MES-SA/Dx5-Rx1 cells assessed as growth inhibition; assay type: functional
DLD-1 = assay: Antiproliferative activity against human DLD1 cells assessed as growth inhibition; assay type: functional, cell-based
HCT-15 = assay: Antiproliferative activity against human HCT15 cells assessed as growth inhibition; assay type: functional, cell-based
[3] = Cytotoxicity against human IMR90 cells up to 1 uM; assay type: cell-based; settings: imr-90
[4] = Fold resistance, ratio of IC50 for antiproliferative activity for P-gp overexpressing human MES-SA/Dx5-Rx1cells to IC50 for antiproliferative activity for human MES-SA cells

Row | SMILES | IC50 (DLD-1) | IC50 (HCT-15) | IC50 [1] | IC50 [2] | Activity [3] | Ratio IC50 [4]
1 | C=C1C[C@@H]2CC[C@@]34C[C@H]5O[C@H]6[C@@H](O3)[C@H]3O[C@H](CC[C@@H]3O[C@H]6[C@H]5O4)CC(=O)C[C@@H]3[C@@H](OC)[C@@H](C[C@H](O)CO)O[C@H]3C[C@H]3O[C@@H](CC[C@@H]1O2)C[C@@H](C)C3=C | 0.54 nM | 0.22 nM | 0.03 nM | 6.5 nM | Non-toxic | 216.5
2 | C=C1C[C@@H]2CC[C@@]34C[C@H]5O[C@H]6[C@@H](O3)[C@H]3O[C@H](CC[C@@H]3O[C@H]6[C@H]5O4)CC(=O)C[C@@H]3[C@@H](OC)[C@@H](C[C@@H](COCC)OCC)O[C@H]3C[C@H]3O[C@@H](CC[C@@H]1O2)C[C@@H](C)C3=C | 0.8 nM | 0.55 nM | 0.54 nM | 2.38 nM | Non-toxic | 4.4
3 | C=C1C[C@@H]2CC[C@@]34C[C@H]5O[C@H]6[C@@H](O3)[C@H]3O[C@H](CC[C@@H]3O[C@H]6[C@H]5O4)CC(=O)C[C@@H]3[C@@H](OC)[C@@H](C[C@@H](COC(C)=O)OC(C)=O)O[C@H]3C[C@H]3O[C@@H](CC[C@@H]1O2)C[C@@H](C)C3=C | 0.44 nM | 0.32 nM | 0.32 nM | 2.77 nM | Non-toxic | 8.78

More lines, main results first:

Row | IC50 (DLD-1) | IC50 (HCT-15) | SMILES | IC50 [1] | IC50 [2] | Activity [3] | Ratio IC50 [4]
4 | 0.45 nM | 0.4 nM | C=C1C[C@@H]2CC[C@@]34C[C@H]5O[C@H]6[C@@H](O3)[C@H]3O[C@H](CC[C@@H]3O[C@H]6[C@H]5O4)CC(=O)C[C@@H]3[C@@H](OC)[C@@H](CC(=O)OCC)O[C@H]3C[C@H]3O[C@@H](CC[C@@H]1O2)C[C@@H](C)C3=C | 0.37 nM | 1.17 nM | Non-toxic | 3.21
5 | 0.75 nM | 0.67 nM | C=C1C[C@@H]2CC[C@@]34C[C@H]5O[C@H]6[C@@H](O3)[C@H]3O[C@H](CC[C@@H]3O[C@H]6[C@H]5O4)CC(=O)C[C@@H]3[C@@H](OC)[C@@H](C[C@@H](CO)OC)O[C@H]3C[C@H]3O[C@@H](CC[C@@H]1O2)C[C@@H](C)C3=C | 0.3 nM | 11.3 nM | Non-toxic | 37.73
6 | 0.2 nM | 0.22 nM | C=CCO[C@H](CO)C[C@H]1O[C@H]2C[C@H]3O[C@@H](CC[C@@H]4O[C@@H](CC[C@@]56C[C@H]7O[C@H]8[C@@H](O5)[C@H]5O[C@H](CC[C@@H]5O[C@H]8[C@H]7O6)CC(=O)C[C@@H]2[C@H]1OC)CC4=C)C[C@@H](C)C3=C | 0.24 nM | 4.13 nM | Non-toxic | 17.19
7 | 0.38 nM | 0.24 nM | C=C1C[C@@H]2CC[C@@]34C[C@H]5O[C@H]6[C@@H](O3)[C@H]3O[C@H](CC[C@@H]3O[C@H]6[C@H]5O4)CC(=O)C[C@@H]3[C@@H](OC)[C@@H](CCOC)O[C@H]3C[C@H]3O[C@@H](CC[C@@H]1O2)C[C@@H](C)C3=C | 0.19 nM | 0.78 nM | Non-toxic | 4.08
